Results as given in the supplement of paper PMC10307832.

Tests used:
Experiment in all cases: relative viability (nuclei count vs DMSO), 5 days (fraction); higher = more cells survive
XMD13-2 + Vorinostat = compound: C1CC1C(=O)NC2=NNC3=C2C=CC(=C3)C4=CC(=CC=C4)C(=O)NC5CC5 [XMD13-2] + O=C(CCCCCCC(=O)Nc1ccccc1)NO [Vorinostat] (partner 1 µM)
Procedure, shortened: (§1)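 Relative viability was taken as the ratio of nuclei in treated wells to nuclei in vehicle wells. Lung cancer cell lines in 1536-well plates received compounds by pin tool one day after seeding, either one drug alone or a fixed anchor-drug dose plus five library-drug doses (not always all listed) in √10 steps. Nuclei were counted on 4× images after 5 days of treatment, and values are medians of duplicate plates.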

XMD13-2 + Linsitinib = compound: C1CC1C(=O)NC2=NNC3=C2C=CC(=C3)C4=CC(=CC=C4)C(=O)NC5CC5 [XMD13-2] + C[C@]1(O)C[C@@H](c2nc(-c3ccc4ccc(-c5ccccc5)nc4c3)c3c(N)nccn32)C1 [Linsitinib] (partner 1 µM)
Procedure, shortened: as §1

XMD13-2 + Tozasertib = compound: C1CC1C(=O)NC2=NNC3=C2C=CC(=C3)C4=CC(=CC=C4)C(=O)NC5CC5 [XMD13-2] + Cc1cc(Nc2cc(N3CCN(C)CC3)nc(Sc3ccc(NC(=O)C4CC4)cc3)n2)n[nH]1 [Tozasertib] (partner 0.1 µM)
Procedure, shortened: as §1

Dasatinib + Navitoclax = compound: Cc1nc(Nc2ncc(C(=O)Nc3c(C)cccc3Cl)s2)cc(N2CCN(CCO)CC2)n1 [Dasatinib] + CC1(C)CCC(c2ccc(Cl)cc2)=C(CN2CCN(c3ccc(C(=O)NS(=O)(=O)c4ccc(N[C@H](CCN5CCOCC5)CSc5ccccc5)c(S(=O)(=O)C(F)(F)F)c4)cc3)CC2)C1 [Navitoclax] (partner 0.5 µM)
Procedure, shortened: as §1

Row | Cell Line | relative viability (XMD13-2 + Vorinostat; first compound 0.05 µM) | relative viability (XMD13-2 + Vorinostat; first compound 0.1581 µM) | relative viability (XMD13-2 + Vorinostat; first compound 0.5 µM) | relative viability (XMD13-2 + Vorinostat; first compound 1.581 µM) | relative viability (XMD13-2 + Vorinostat; first compound 5 µM) | relative viability (XMD13-2 + Linsitinib; first compound 0.05 µM) | relative viability (XMD13-2 + Linsitinib; first compound 0.1581 µM) | relative viability (XMD13-2 + Linsitinib; first compound 0.5 µM) | relative viability (XMD13-2 + Linsitinib; first compound 1.581 µM) | relative viability (XMD13-2 + Linsitinib; first compound 5 µM) | relative viability (XMD13-2 + Tozasertib; first compound 0.05 µM) | relative viability (XMD13-2 + Tozasertib; first compound 0.1581 µM) | relative viability (XMD13-2 + Tozasertib; first compound 0.5 µM) | relative viability (XMD13-2 + Tozasertib; first compound 1.581 µM) | relative viability (XMD13-2 + Tozasertib; first compound 5 µM) | relative viability (Dasatinib + Navitoclax; first compound 0.005 µM) | relative viability (Dasatinib + Navitoclax; first compound 0.01581 µM) | relative viability (Dasatinib + Navitoclax; first compound 0.05 µM) | relative viability (Dasatinib + Navitoclax; first compound 0.1581 µM) | relative viability (Dasatinib + Navitoclax; first compound 0.5 µM)
1 | NCI-H2023 | 0.837 | 0.668 | 0.696 | 0.731 | 0.94 | 0.697 | 0.684 | 0.572 | 0.649 | 0.854 | 0.524 | 0.34 | 0.372 | 0.281 | 0.309 | 0.978 | 0.854 | 0.795 | 0.778 | 0.488
2 | EBC-1 |  |  |  |  |  | 0.889 | 0.966 | 1.08 | 0.874 | 0.766 |  |  |  |  |  | 0.477 | 0.289 | 0.314 | 0.25 | 0.283
3 | NCI-H1666 | 0.999 | 1.02 | 1.09 | 1.03 | 1 | 0.869 | 0.804 | 0.741 | 0.818 | 0.86 | 0.662 | 0.602 | 0.595 | 0.623 | 0.518 | 0.948 | 0.895 | 0.917 | 0.617 | 0.324
4 | NCI-H1975 | 0.795 | 0.636 | 0.662 | 0.931 | 0.801 | 1.08 | 0.926 | 0.968 | 0.972 | 1.07 | 0.967 | 0.739 | 0.735 | 0.631 | 0.72 | 0.895 | 1.02 | 1.03 | 0.412 | 0.308
5 | NCI-H2170 | 0.904 | 0.753 | 0.855 | 0.794 | 0.809 |  |  |  |  |  | 0.646 | 0.737 | 0.774 | 0.672 | 0.719 | 0.545 | 0.473 | 0.572 | 0.267 | 0.232
6 | NCI-H1355 | 0.704 | 0.601 | 0.694 | 0.624 | 0.638 | 0.973 | 0.834 | 0.851 | 0.825 | 0.894 | 0.64 | 0.631 | 0.638 | 0.548 | 0.589 | 0.858 | 0.653 | 0.92 | 0.534 | 0.376
7 | NCI-H1648 | 0.733 |  | 0.42 | 0.391 | 0.459 |  |  |  |  |  | 0.5 | 0.314 | 0.608 | 0.51 | 0.342 |  |  |  |  | 
8 | A549 |  |  |  |  |  | 0.856 | 0.513 | 0.579 | 0.677 | 0.674 |  |  |  |  |  | 1.27 | 1.2 | 1.27 | 1.06 | 0.443
9 | SK-MES-1 | 1.16 | 1.09 | 1.07 | 1.03 | 1.31 | 1.11 | 1.03 | 1.01 | 1.01 | 1.16 | 0.998 | 0.879 | 0.919 | 0.804 | 0.72 | 1.18 |  | 1.41 | 0.802 | 0.429
10 | EKVX | 0.785 | 0.625 | 0.758 | 0.661 | 0.702 | 1.16 | 0.911 | 0.992 | 0.871 | 1.05 | 0.468 | 0.414 | 0.405 | 0.394 | 0.45 | 0.951 | 0.958 | 0.821 | 0.407 | 0.18
11 | RERF-LC-KJ | 0.783 | 0.653 | 0.686 | 0.616 | 0.806 | 0.916 | 0.89 | 0.947 | 0.817 | 0.871 | 0.613 | 0.515 | 0.59 | 0.466 | 0.523 | 1.11 | 0.537 | 0.855 | 0.669 | 0.656
12 | NCI-H1755 | 0.827 | 0.685 | 0.875 | 0.926 | 0.795 | 1.04 | 0.942 | 1.06 | 0.963 | 1.02 | 0.664 | 0.575 | 0.498 | 0.543 | 0.494 | 0.697 | 0.591 | 0.501 | 0.273 | 0.142
13 | NCI-H661 | 0.811 | 0.75 | 0.75 | 0.825 | 0.563 | 0.67 | 0.708 | 0.58 | 0.555 | 0.398 | 0.335 | 0.307 | 0.33 | 0.36 | 0.427 |  |  |  |  | 
14 | LOU-NH91 | 1.05 | 0.971 | 0.935 | 0.852 | 1.02 | 0.985 | 0.981 | 0.966 | 0.876 | 1.1 | 0.724 | 0.688 | 0.734 | 0.644 | 0.638 | 0.758 | 0.595 | 0.531 | 0.506 | 0.317
15 | LXF-289 | 0.864 | 0.767 | 0.86 | 0.959 | 0.808 | 0.941 | 0.942 | 0.967 | 0.984 | 0.986 | 0.232 | 0.195 | 0.194 | 0.208 | 0.177 | 1.01 | 0.969 | 0.923 | 0.408 | 0.171
16 | HCC-44 | 1.11 | 1.17 | 1.21 | 1.09 | 1.09 | 0.683 | 0.694 | 0.697 | 0.704 | 0.773 | 1.06 | 1.09 | 1.09 | 0.903 | 0.842 | 0.93 | 0.916 | 0.98 | 0.761 | 0.436
17 | HARA | 0.555 | 0.484 | 0.536 | 0.578 | 0.372 | 0.934 | 0.931 | 0.944 | 0.972 | 1.07 | 0.0933 | 0.117 | 0.106 | 0.0964 | 0.105 | 1.15 | 0.974 | 1 | 0.596 | 0.326
18 | 201T | 0.997 | 1.04 | 1.05 | 0.981 | 1.04 | 1.06 | 1.08 | 1.01 | 0.957 | 0.908 | 1.02 | 0.921 | 0.867 | 0.872 | 0.828 | 1.15 | 1.2 | 1.13 | 1.01 | 0.65
